Test results reported in ChEMBL document CHEMBL1130772, “New nonsteroidal androgen receptor modulators based on 4-(trifluoromethyl)-2(1H)-pyrrolidino[3,2-g] quinolinone” (Bioorg Med Chem Lett, 1998).

Key:
Androgen receptor [1] = target: T1, Androgen receptor (Homo sapiens, UniProt P10275); assay: Antagonistic activity (IC50) against human androgen receptor (hAR) in co-transfected CV-1 cell; type: functional, cell-based
T1 sequence (P10275 whole entry): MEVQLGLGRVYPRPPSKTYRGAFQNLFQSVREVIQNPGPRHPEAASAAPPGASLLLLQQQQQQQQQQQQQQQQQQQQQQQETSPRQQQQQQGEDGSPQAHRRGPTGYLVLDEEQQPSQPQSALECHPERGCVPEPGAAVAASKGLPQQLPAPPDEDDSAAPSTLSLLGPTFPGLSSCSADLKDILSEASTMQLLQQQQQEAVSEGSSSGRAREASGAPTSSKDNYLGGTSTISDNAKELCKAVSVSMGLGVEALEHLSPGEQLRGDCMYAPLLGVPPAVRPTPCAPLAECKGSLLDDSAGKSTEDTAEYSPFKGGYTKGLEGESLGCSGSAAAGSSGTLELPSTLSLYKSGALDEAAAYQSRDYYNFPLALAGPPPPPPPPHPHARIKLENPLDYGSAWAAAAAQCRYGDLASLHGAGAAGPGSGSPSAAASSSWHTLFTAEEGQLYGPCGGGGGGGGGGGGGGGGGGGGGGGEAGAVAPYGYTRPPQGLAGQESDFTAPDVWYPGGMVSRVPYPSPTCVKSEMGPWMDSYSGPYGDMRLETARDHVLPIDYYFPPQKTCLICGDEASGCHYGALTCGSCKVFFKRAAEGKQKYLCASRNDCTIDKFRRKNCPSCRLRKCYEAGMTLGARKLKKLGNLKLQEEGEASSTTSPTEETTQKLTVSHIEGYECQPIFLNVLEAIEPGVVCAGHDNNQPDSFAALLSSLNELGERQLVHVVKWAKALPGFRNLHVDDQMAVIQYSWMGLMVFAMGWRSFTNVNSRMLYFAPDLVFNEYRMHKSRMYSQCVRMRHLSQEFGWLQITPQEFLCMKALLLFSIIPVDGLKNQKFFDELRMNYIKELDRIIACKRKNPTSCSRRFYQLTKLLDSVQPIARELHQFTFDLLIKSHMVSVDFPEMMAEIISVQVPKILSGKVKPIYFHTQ

Androgen receptor [2] = target: T1, Androgen receptor; assay: Binding affinity against Androgen receptor transfected into COS cells
Androgen receptor [3] = target: T1, Androgen receptor; assay: Agonistic activity (EC50) against human androgen receptor (hAR) in co-transfected CV-1 cell; type: functional, cell-based
Androgen receptor [4] = target: T1, Androgen receptor
[5] = target: T2, Glucocorticoid receptor (Homo sapiens) (UniProt P04150); assay: (§1) Antagonistic activity against Glucocorticoid receptor in co-transfected CV-1 cell; type: functional, cell-based
T2 sequence (whole entry): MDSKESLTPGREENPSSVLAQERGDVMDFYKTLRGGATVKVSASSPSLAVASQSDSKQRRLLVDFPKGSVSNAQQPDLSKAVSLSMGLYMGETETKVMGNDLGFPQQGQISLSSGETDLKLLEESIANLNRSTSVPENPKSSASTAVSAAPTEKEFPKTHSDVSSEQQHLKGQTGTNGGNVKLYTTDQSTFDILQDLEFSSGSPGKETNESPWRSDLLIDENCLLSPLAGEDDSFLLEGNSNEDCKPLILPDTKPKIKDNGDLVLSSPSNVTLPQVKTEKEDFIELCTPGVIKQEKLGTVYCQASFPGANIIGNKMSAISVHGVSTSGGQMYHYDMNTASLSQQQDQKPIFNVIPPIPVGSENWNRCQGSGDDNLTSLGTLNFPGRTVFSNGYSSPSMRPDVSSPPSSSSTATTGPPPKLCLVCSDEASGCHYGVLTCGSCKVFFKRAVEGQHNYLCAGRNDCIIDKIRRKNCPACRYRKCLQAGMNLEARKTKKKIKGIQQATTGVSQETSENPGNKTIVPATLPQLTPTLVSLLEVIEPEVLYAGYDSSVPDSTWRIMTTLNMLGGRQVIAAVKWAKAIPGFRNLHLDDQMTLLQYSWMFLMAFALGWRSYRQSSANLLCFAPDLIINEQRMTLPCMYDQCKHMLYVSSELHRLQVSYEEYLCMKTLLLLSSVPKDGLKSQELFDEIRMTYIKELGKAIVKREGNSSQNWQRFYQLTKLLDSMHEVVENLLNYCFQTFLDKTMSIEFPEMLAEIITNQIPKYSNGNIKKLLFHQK

Estrogen receptor [6] = target: T3, Estrogen receptor (Homo sapiens, UniProt Q92731+P03372); assay: (§2) Antagonistic activity against Estrogen receptor in co-transfected CV-1 cell; type: functional, cell-based
Estrogen receptor [7] = target: T3, Estrogen receptor; assay: as §2; type: functional, cell-based; remark: listed apart in the source
[8] = target: T4, Mineralocorticoid receptor (Homo sapiens) (UniProt P08235); assay: (§3) Antagonistic activity against hMR in co-transfected CV-1 cell; type: functional, cell-based
T4 sequence (whole entry): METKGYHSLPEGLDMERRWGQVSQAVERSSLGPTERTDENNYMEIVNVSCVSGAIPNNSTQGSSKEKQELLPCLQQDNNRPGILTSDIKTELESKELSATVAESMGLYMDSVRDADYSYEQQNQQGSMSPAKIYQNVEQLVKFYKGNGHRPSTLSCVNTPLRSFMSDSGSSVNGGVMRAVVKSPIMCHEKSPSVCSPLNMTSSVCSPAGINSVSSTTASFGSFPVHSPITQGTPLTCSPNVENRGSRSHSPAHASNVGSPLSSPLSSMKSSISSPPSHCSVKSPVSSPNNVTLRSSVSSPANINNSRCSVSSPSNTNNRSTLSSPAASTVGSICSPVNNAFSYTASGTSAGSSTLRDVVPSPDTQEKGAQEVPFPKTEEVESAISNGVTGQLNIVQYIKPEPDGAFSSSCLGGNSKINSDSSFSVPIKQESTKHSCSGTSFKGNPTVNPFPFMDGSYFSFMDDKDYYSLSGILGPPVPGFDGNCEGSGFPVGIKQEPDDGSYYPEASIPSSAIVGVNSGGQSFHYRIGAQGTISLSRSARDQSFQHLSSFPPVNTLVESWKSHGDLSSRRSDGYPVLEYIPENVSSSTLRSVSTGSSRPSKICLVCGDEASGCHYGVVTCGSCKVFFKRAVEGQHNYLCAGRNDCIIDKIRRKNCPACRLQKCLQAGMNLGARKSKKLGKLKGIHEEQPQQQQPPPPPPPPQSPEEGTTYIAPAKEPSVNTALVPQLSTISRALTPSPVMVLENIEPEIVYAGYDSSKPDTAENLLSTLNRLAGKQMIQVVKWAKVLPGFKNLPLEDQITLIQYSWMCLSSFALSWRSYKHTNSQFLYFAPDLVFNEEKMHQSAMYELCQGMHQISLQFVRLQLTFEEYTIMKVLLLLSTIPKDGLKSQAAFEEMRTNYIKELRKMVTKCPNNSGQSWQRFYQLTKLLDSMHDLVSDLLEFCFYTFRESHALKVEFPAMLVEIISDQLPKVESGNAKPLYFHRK

[9] = target: T5, Progesterone receptor (Homo sapiens) (UniProt P06401); assay: (§4) Antagonistic activity against hPR in co-transfected CV-1 cell; type: functional, cell-based
T5 sequence (whole entry): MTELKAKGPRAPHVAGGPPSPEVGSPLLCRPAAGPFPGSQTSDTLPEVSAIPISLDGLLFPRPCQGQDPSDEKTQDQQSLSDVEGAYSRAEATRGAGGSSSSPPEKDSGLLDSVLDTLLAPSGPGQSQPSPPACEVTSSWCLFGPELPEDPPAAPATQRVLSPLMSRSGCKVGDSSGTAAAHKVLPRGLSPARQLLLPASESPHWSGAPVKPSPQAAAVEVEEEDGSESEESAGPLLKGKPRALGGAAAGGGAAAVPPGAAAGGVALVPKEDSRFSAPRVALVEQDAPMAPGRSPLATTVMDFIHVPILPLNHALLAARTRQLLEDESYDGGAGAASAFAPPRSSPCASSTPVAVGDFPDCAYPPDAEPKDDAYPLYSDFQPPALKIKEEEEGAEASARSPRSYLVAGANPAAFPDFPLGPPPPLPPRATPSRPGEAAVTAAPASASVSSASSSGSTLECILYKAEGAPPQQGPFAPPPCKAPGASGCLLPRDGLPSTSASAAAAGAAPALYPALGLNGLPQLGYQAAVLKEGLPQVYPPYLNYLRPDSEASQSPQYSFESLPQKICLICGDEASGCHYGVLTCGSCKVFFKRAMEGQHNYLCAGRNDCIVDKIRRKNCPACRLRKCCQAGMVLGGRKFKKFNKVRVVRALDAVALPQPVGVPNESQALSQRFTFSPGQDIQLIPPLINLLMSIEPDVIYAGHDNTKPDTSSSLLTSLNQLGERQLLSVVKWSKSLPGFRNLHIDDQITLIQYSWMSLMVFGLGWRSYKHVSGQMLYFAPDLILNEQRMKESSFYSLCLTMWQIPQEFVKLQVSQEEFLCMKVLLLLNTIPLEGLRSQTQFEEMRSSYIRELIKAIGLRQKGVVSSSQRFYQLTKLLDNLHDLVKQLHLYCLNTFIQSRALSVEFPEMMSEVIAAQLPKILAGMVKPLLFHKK

Glucocorticoid receptor = target: T6, Glucocorticoid receptor (Homo sapiens, UniProt P04150); assay: as §1; type: functional, cell-based
T6 sequence (P04150 whole entry): T2 sequence (whole entry)

[10] = target: T7, Mineralocorticoid receptor (Homo sapiens, UniProt P08235); assay: as §3; type: functional, cell-based
T7 sequence (P08235 whole entry): T4 sequence (whole entry)

Progesterone receptor = target: T8, Progesterone receptor (Homo sapiens, UniProt P06401); assay: as §4; type: functional, cell-based
T8 sequence (P06401 whole entry): T5 sequence (whole entry)

Androgen receptor [11] = target: T1, Androgen receptor; conditions: cv-1
Description: Agonistic activity against human androgen receptor (hAR) in co-transfected CV-1 cell

Androgen receptor [12] = target: T1, Androgen receptor; assay: Binding affinity against hAR androgen receptor expressed in COS cells; type: cell-based

SMILES	IC50 (Androgen receptor [1])	Ki (Androgen receptor [2]) [µM]	EC50 (Androgen receptor [3]) [µM]	IC50 (Androgen receptor [4]) [µM]	further results
C[C@@H]1CNc2cc3nc(O)cc(C(F)(F)F)c3cc21	Not Active	0.017	0.062		
C[C@@H]1Cc2cc3c(C(F)(F)F)cc(=O)n(C)c3cc2N1	Not Active	0.009	0.02		
CC1(C)CNc2cc3nc(O)cc(C(F)(F)F)c3cc21		0.028	0.042	0.01	
C[C@]12CCCC[C@H]1Nc1cc3nc(O)cc(C(F)(F)F)c3cc12	Not Active				Efficacy [5]: 43%; Efficacy (Estrogen receptor [6]): < 20%; IC50 (Estrogen receptor [7]): > 10 µM; Efficacy [8]: 43%; Efficacy [9]: 96%
C[C@@H]1Cc2cc3c(C(F)(F)F)cc(O)nc3cc2N1		0.01	0.168	0.007	IC50 (Glucocorticoid receptor): > 10 µM; Efficacy [5]: < 20%; Efficacy (Estrogen receptor [6]): < 20%; IC50 (Estrogen receptor [7]): > 10 µM; Efficacy [8]: < 20%; IC50 [10]: > 10 µM; Efficacy [9]: 89%; IC50 (Progesterone receptor): 0.75 µM
Oc1cc(C(F)(F)F)c2cc3c(cc2n1)N[C@@H]1CCCC[C@H]31	Not Active	0.005	0.005		IC50 (Glucocorticoid receptor): 5.8 µM; Efficacy [5]: 33%; Efficacy (Estrogen receptor [6]): < 20%; IC50 (Estrogen receptor [7]): > 10 µM; Efficacy [8]: 54%; IC50 [10]: 2 µM; Efficacy [9]: 91%; IC50 (Progesterone receptor): 0.17 µM
C[C@@H]1c2cc3c(C(F)(F)F)cc(=O)n(C)c3cc2N[C@@H]1C		0.01	0.015	9.18	
Cn1c(=O)cc(C(F)(F)F)c2cc3c(cc21)N[C@@H]1CCCC[C@H]31	Not Active	0.004	0.01		IC50 (Glucocorticoid receptor): 3 µM; Efficacy [5]: 39%; Efficacy (Estrogen receptor [6]): < 20%; IC50 (Estrogen receptor [7]): > 10 µM; Efficacy [8]: 58%; IC50 [10]: 2.9 µM; Efficacy [9]: 99%; IC50 (Progesterone receptor): 0.15 µM
C[C@H]1CC[C@H]2Nc3cc4nc(O)cc(C(F)(F)F)c4cc3[C@H]2C1	Not Active	0.023	0.064		
CCCN1c2cc3c(cc2[C@H]2CCCC[C@H]21)c(C(F)(F)F)cc(=O)n3C		0.063	0.324	0.027	
C[C@]12CCCC[C@H]1Nc1cc3[nH]c(=O)cc(C(F)(F)F)c3cc12		0.021	0.025		IC50 (Glucocorticoid receptor): 2.1 µM; IC50 [10]: 1.9 µM; IC50 (Progesterone receptor): 0.73 µM
C[C@H]1N(C)c2cc3c(cc2C1(C)C)c(C(F)(F)F)cc(=O)n3C		0.033		0.056	EC50 (Androgen receptor [11]): Not Active
CN1CCc2cc3c(C(F)(F)F)cc(=O)n(C)c3cc21				0.197	Ki (Androgen receptor [12]): 0.167 µM; EC50 (Androgen receptor [11]): Not Active
C[C@H]1Nc2cc3c(cc2C1(C)C)c(C(F)(F)F)cc(=O)n3C		0.009	0.38	0.022	
CN1c2cc3c(cc2[C@@]2(C)CCCC[C@@H]12)c(C(F)(F)F)cc(=O)n3C		0.097		0.053	EC50 (Androgen receptor [11]): Not Active
C[C@H]1Nc2cc3[nH]c(=O)cc(C(F)(F)F)c3cc2C1(C)C		0.021	0.099	0.048	
C[C@H]1CC[C@@H]2[C@H](C1)c1cc3c(C(F)(F)F)cc(=O)n(C)c3cc1N2C		0.078		0.054	EC50 (Androgen receptor [11]): Not Active
CCn1c(=O)cc(C(F)(F)F)c2cc3c(cc21)N[C@@H]1CCCC[C@H]31		0.194		0.23	EC50 (Androgen receptor [11]): Not Active
C[C@@H]1c2cc3c(C(F)(F)F)cc(O)nc3cc2N[C@@H]1C	Not Active	0.006	0.005		IC50 (Glucocorticoid receptor): 2.5 µM; Efficacy [5]: 35%; Efficacy (Estrogen receptor [6]): < 20%; IC50 (Estrogen receptor [7]): > 10 µM; Efficacy [8]: 29%; IC50 [10]: 2 µM; Efficacy [9]: 88%; IC50 (Progesterone receptor): 1.9 µM
Cn1c(=O)cc(C(F)(F)F)c2cc3c(cc21)N[C@@H]1CCCC[C@]31C	Not Active	0.009	0.033		
